# Source: ChEMBL document CHEMBL5634090, “Design of phenothiazine-based cationic amphiphilic derivatives incorporating arginine residues: Potential membrane-active broad-spectrum antimicrobials combating pathogenic bacteria in vitro and in vivo” (Eur J Med Chem, 2023)
# Legend:
# Staphylococcus aureus [1] = experiment: Antibacterial activity against methicillin resistant Staphylococcus aureus N315 by microbroth dilution assay; format: functional
# Escherichia coli = experiment: Antibacterial activity against Escherichia coli ATCC 25922 by microbroth dilution assay; format: functional
# [2] = Hemolytic activity in rabbit erythrocytes; format: toxicity, cell-based, Oryctolagus cuniculus, Erythrocyte
# Staphylococcus aureus [3] = experiment: Antibacterial activity against methicillin resistant Staphylococcus aureus NCTC 10442 by microbroth dilution assay; format: functional
# Staphylococcus aureus [4] = experiment: Antibacterial activity against Staphylococcus aureus ATCC 29213 by microbroth dilution assay; format: functional
# Pseudomonas aeruginosa = experiment: Antibacterial activity against Pseudomonas aeruginosa ATCC 9027 by microbroth dilution assay; format: functional
# Klebsiella pneumoniae [5] = experiment: Antibacterial activity against Klebsiella pneumoniae ATCC 10031 by microbroth dilution assay; format: functional
# Klebsiella pneumoniae [6] = experiment: Antibacterial activity against Klebsiella pneumoniae ATCC 14581 by microbroth dilution assay; format: functional
Structure (SMILES),MIC (Staphylococcus aureus [1]) [µg/mL],MIC (Escherichia coli) [µg/mL],HC50 [2] [µg/mL],MIC (Staphylococcus aureus [3]) [µg/mL],MIC (Staphylococcus aureus [4]) [µg/mL],MIC (Pseudomonas aeruginosa) [µg/mL],MIC (Klebsiella pneumoniae [5]) [µg/mL],MIC (Klebsiella pneumoniae [6]) [µg/mL]
CCCCCCCN1c2ccccc2Sc2ccc(OCC(=O)N[C@@H](CCCNC(=N)N)C(=O)N[C@@H](CCCNC(=N)N)C(=O)N[C@@H](CCCNC(=N)N)C(=O)OC)cc21,0.78,12.5,> 200,0.78,0.78,,,
CCCCCCCCCN1c2ccccc2Sc2ccc(OCC(=O)N[C@@H](CCCNC(=N)N)C(=O)N[C@@H](CCCNC(=N)N)C(=O)N[C@@H](CCCNC(=N)N)C(=O)OC)cc21,0.78,3.12,> 200,1.56,1.56,12.5,12.5,12.5
CCCCCCCOc1ccc2c(c1)N(CCCCNC(=N)N)c1ccccc1S2,0.78,> 50,> 200,0.78,3.12,,,
CCCCCOc1ccc2c(c1)N(CCCCCCCCN)c1ccccc1S2,3.12,> 50,> 200,3.12,3.12,,,
CCCCCOc1ccc2c(c1)N(CCCCCCN)c1ccccc1S2,1.56,> 50,> 200,1.56,3.12,,,
CC1(C)S[C@@H]2[C@H](NC(=O)[C@H](N)c3ccc(O)cc3)C(=O)N2[C@H]1C(=O)O [AMOXICILLIN],,6.25,,,,,,
CCOC(=O)COc1ccc2c(c1)Nc1ccccc1S2,> 50,> 50,> 200,> 50,> 50,,,
CCCCCN1c2ccccc2Sc2ccc(OCC(=O)OCC)cc21,> 50,> 50,> 200,> 50,> 50,,,
CCCCCOc1ccc2c(c1)N(CCCCN(CC)CC)c1ccccc1S2,3.12,> 50,> 200,3.12,6.25,,,
CCCCCOc1ccc2c(c1)N(CCCNC(=N)N)c1ccccc1S2,1.56,> 50,> 200,0.78,1.56,,,
CCCCCCCCCN1c2ccccc2Sc2ccc(OCC(=O)N[C@@H](CCCNC(=N)N)C(=O)N[C@@H](CCCNC(=N)N)C(=O)OC)cc21,1.56,1.56,> 200,1.56,1.56,50,3.12,6.25
CCCCCOc1ccc2c(c1)N(CCCCCCN(CC)CC)c1ccccc1S2,1.56,> 50,> 200,3.12,3.12,,,
CCCCCCCOc1ccc2c(c1)Nc1ccccc1S2,> 50,> 50,> 200,> 50,> 50,,,
CC(C)=CCOc1ccc2c(c1)Nc1ccccc1S2,> 50,> 50,> 200,> 50,> 50,,,
CCCCCCCCCN1c2ccccc2Sc2ccc(OCC(=O)OCC)cc21,> 50,> 50,> 200,> 50,> 50,,,
CCCCCOc1ccc2c(c1)N(CCCCNC(=N)N)c1ccccc1S2,1.56,6.25,> 200,1.56,1.56,> 50,6.25,25
CCCCCOc1ccc2c(c1)N(CCCN)c1ccccc1S2,3.12,25,> 200,3.12,3.12,,,
CCCCCCCCCN1c2ccccc2Sc2ccc(OCC(=O)N[C@@H](CCCNC(=N)N)C(=O)N[C@@H](CCCNC(=N)N)C(N)=O)cc21,1.56,1.56,> 200,0.78,1.56,> 50,3.12,3.12
CCCCCCCOc1ccc2c(c1)N(CCCCN)c1ccccc1S2,1.56,> 50,> 200,3.12,3.12,,,
